The text below walks through data of PMC7774954, “Interactomic affinity profiling by holdup assay: Acetylation and distal residues impact the PDZome-binding specificity of PTEN phosphatase” (PLoS ONE, 2020).

Structures are written as SMILES. *1 amine or outer side, *2 acyl side, *3 side chain or, on linkers, in order; H or OH if unused. Where a SMILES comes first, the peptide text is derived from it. The star is where a group is joined. X1 = O=C(CCCC[C@@H]1SC[C@@H]2NC(=O)N[C@@H]21)NCCCOCCOCCOCCCN*; Suc = O=C(CCC(=O)[*:2])[*:1]

Assay [1] deals with T1, MAST1 PDZ 1 (Homo sapiens, UniProt Q9Y2H9).
T1 construct: made in house; host or cells: E. coli
T1 sequence (Q9Y2H9 967-1055 limits assumed): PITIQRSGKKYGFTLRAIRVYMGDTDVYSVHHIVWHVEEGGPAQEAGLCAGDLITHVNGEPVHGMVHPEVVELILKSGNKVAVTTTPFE
Kind of assay: Holdup assay, MAST1-1. Conditions: for BI: MAST1-1. In kind it is binding. How it is done:
(§1) The holdup assay was performed on a Tecan freedom Evo200 robot with 384-well plates in singlicate for the three 11-mer PTEN variants and the 13-mer PTEN peptide as described in [31, 32]. Briefly, prior to interaction assay, 2.5 μL of streptavidin resin was saturated in each well with 20 μL of biotinylated PBM peptides (42 μM) and then washed twice with an excess of free biotin, while the reference resin was incubated only with biotin. Right before the holdup experiment, the PDZ library was spiked with an internal standard of lysozyme. Then, the biotin- or PBM-saturated resin was incubated, each in a distinct well of a 384-well plate, with complete cell lysates diluted so that the concentration of the tag-PDZ present in the crude extract is adjusted at 4 μM. After a sufficient time to reach complex equilibrium (15 min.), a fast and mild filtration step is performed and the tag-PDZ concentrations were measured by capillary electrophoresis instrument (LabChip GXII, PerkinElmer, Massachusets, USA). Standard markers were used to convert migration time into molecular weight on the LabChip software and inappropriate molecular weight markers were corrected or excluded.
(§2) For filtered data, the BI was extracted with the following equation (Eq 1) that estimates the depleted fraction after superimposition of the sample and reference electropherograms: BI=Iref−Ilig/Iref (1) where Iref and Ilig are the intensities of the tag-PDZ peaks measured, for each PDZ domain/PBM peptide interaction pair, in the biotin reference and the PBM electropherograms, respectively.
(§3) BIs were transformed into dissociation constants (KD) using the following formula: KD=([PDZtot]−BI·[PDZtot])·([PBMtot]−BI·[PDZtot])/BI·[PDZtot] (2) where [PDZtot] and [PBMtot] correspond to the total concentrations of the PDZ domain (usually around 4 μM) and the PBM peptide used during the assay. Since the PBMtot concentration in the resin during the holdup assay parameter may differ from one peptide to another and remains unknown, it is impossible to directly convert BI values into KD constants. We systematically determined the KD constants for a subset of PDZ/PBM pairs by competitive FP. […] For each PBM, the average peptide concentration was calculated after outlier rejection based on the absolute distances from the median as compared to three times the standard deviation (3σ rule), with never more than 2 values rejected.

The subject of assay [2] is CASK-1. Kind of assay: Holdup assay, CASK-1. In kind it is binding, human.
Assay [3] concerns DVL1-1. Put plainly: Holdup assay, DVL1-1. It counts as binding, human.
Assay [4] relates to FRMPD2-3. Kind of assay: Holdup assay, FRMPD2-3. In kind it is binding, human.
Assay [5] addresses T2, PARD3 PDZ 3 (Homo sapiens, UniProt Q8TEW0).
T2 construct: made in house; host or cells: E. coli
Put plainly: Holdup assay, PARD3-3. It counts as binding. To be noted: for KD (affinity measured by holdup): PARD3 PDZ 3, singlicate, BI converted to KD, tag-PDZ 4 μM, 15 min, nd: not detected in the holdup assay; for BI: PDZ domain PARD3-3. How it is done: as §1, §2, §3

Assay [6] concerns GRIP2-4. Kind of assay: Holdup assay, GRIP2-4. It counts as binding, human.
In assay [7] the test system is DLG5-2. Kind of assay: Holdup assay, DLG5-2. In kind it is binding, human.
Assay [8] addresses T3, MAST3 PDZ 1 (Homo sapiens, UniProt O60307).
T3 construct: made in house; host or cells: E. coli
T3 sequence (O60307 950-1038 limits assumed): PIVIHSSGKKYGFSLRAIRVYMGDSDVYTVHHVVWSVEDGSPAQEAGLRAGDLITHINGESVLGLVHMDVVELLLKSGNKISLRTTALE
Put plainly: Holdup assay, MAST3-1. In kind it is binding. To be noted: for BI: MAST3-1. Here is the method:
as §1, §2, §3

Assay [9] addresses T4, DLG4 PDZ 3 (Homo sapiens, UniProt P78352).
T4 construct: made in house; host or cells: E. coli
Kind of assay: Holdup assay, DLG4-3. In kind it is binding. How it is done:
as §1, §2, §3

For assay [10], the target named is GORASP1-1 (Homo sapiens, UniProt Q9BQQ3). Put plainly: Holdup assay, GORASP1-1. In kind it is binding.
Assay [11] deals with GRIP2-7. Put plainly: Holdup assay, GRIP2-7. It counts as binding, human.
In assay [12] the target is DLG4-2 (Homo sapiens, UniProt P78352). Put plainly: Holdup assay, DLG4-2. In kind it is binding.
The target in assay [13] is T5, DFNB31-3 (Homo sapiens, UniProt Q9P202).
T5 sequence (Q9P202 1-907): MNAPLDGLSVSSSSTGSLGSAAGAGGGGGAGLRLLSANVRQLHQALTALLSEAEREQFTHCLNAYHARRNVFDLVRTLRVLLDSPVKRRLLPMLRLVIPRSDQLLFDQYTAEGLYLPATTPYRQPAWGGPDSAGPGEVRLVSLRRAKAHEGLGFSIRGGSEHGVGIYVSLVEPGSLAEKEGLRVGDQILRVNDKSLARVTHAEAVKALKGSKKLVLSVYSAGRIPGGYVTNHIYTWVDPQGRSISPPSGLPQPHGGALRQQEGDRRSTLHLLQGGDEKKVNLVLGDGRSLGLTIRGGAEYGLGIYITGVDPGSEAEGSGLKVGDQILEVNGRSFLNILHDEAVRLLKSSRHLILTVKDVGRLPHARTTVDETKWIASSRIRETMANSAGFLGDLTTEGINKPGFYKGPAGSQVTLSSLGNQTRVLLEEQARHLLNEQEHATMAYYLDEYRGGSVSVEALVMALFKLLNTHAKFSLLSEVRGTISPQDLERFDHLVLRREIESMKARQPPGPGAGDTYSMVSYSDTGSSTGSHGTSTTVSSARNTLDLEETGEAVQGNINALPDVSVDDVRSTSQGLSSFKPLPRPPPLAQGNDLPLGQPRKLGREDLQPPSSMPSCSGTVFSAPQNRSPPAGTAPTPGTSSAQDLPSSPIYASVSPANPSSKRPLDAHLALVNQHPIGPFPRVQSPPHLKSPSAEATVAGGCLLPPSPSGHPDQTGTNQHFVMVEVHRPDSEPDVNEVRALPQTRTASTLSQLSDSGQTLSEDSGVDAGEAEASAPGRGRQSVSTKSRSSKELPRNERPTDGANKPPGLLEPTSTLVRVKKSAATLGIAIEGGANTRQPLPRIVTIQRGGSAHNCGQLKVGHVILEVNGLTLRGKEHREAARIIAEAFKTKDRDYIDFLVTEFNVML
Kind of assay: Holdup assay, DFNB31-3. It counts as binding.

The target in assay [14] is T6, LNX1-2 (Homo sapiens, UniProt Q8TBB1).
T6 sequence (Q8TBB1 385-467): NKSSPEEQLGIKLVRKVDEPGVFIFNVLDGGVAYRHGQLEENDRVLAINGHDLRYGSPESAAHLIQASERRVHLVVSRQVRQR
Put plainly: Holdup assay, LNX1-2. In kind it is binding.

T2 sequence (Q8TEW0 590-677 limits assumed): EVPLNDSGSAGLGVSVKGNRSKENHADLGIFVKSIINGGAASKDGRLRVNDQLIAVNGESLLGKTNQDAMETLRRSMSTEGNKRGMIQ
T4 sequence (P78352 313-393 limits assumed): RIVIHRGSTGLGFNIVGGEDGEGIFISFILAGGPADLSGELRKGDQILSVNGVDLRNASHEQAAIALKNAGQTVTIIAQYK
Chain of DLG4-2 (P78352 160-246): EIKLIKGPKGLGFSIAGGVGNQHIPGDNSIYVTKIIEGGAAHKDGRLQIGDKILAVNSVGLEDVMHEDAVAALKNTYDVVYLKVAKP
Chain of GORASP1-1 (Q9BQQ3 2-440): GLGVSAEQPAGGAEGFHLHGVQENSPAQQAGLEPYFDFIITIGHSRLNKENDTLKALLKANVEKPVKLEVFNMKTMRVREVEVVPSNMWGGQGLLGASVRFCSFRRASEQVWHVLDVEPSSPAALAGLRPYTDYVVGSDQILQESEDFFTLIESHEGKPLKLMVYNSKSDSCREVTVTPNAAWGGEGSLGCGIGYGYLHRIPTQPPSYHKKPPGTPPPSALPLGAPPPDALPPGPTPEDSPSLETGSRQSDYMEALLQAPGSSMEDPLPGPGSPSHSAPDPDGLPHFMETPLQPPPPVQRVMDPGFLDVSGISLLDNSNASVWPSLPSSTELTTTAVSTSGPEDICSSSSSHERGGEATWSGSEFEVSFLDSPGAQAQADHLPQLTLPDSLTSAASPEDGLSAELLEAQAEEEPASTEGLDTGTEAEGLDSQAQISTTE

Usually Kd stands for the equilibrium constant for the complex coming apart. A higher Kd goes with a looser complex. With `CC[C@H](C)[C@H](NC(=O)[C@H](CCC(N)=O)NC(=O)[C@@H](NC(=O)[C@H](Cc1c[nH]cn1)NC(=O)[C@H](CCC(N)=O)NC(=O)[C@H](CC(=O)O)NC(=O)[C@H](CCC(=O)O)NC(=O)[C@H](CC(=O)O)NC(=O)CCC(=O)NCCCOCCOCCOCCCNC(=O)CCCC[C@@H]1SC[C@@H]2NC(=O)N[C@@H]21)[C@@H](C)O)C(=O)N[C@H](C(=O)N[C@@H](CCCNC(=N)N)C(=O)N[C@H](C(=O)O)C(C)C)[C@@H](C)O` [PTEN_KR] ({X1-Suc}-DEDQHTQITRV-OH), the results for the Kd in assay [1], in assay [8] and in [12] were 32.2 µM, 81.6 µM and 60.2 µM, respectively. Besides, the BI is 0.42 in [1]; -0.056 in assay [3]; -0.067 in [4]; 0.044 in [5]; -0.019 in [6]; -0.028 in assay [7]. In addition, the BI in [8] is recorded as 0.228; in assay [9], 0.043; in assay [10], 0.122; in [11] it was -0.066; in assay [12] it was 0.284; in assay [13], -0.014. For the same compound, the LogKD in [2], in assay [3], in [4], in [6], in assay [7] and in assay [11] was 3.655 each time. In assay [13], this compound yielded a LogKD of 3.655. In assay [5], the “KD (affinity measured by holdup)” value worked out at 56 µM.

In the case of `CC[C@H](C)[C@H](NC(=O)[C@H](CCC(N)=O)NC(=O)[C@@H](NC(=O)[C@H](Cc1c[nH]cn1)NC(=O)[C@H](CCC(N)=O)NC(=O)[C@H](CC(=O)O)NC(=O)[C@H](CCC(=O)O)NC(=O)[C@H](CC(=O)O)NC(=O)[C@H](Cc1ccccc1)NC(=O)[C@@H]1CCCN1C(=O)CCC(=O)NCCCOCCOCCOCCCNC(=O)CCCC[C@@H]1SC[C@@H]2NC(=O)N[C@@H]21)[C@@H](C)O)C(=O)N[C@H](C(=O)N[C@@H](CCCCN)C(=O)N[C@H](C(=O)O)C(C)C)[C@@H](C)O` [PTEN_13] ({X1-Suc}-PFDEDQHTQITKV-OH), the Kd in assay [1] was 7.64 µM; in [14] it was 19.4 µM. The BI is on record as -0.07 in assay [2]; -0.013 in assay [3]; 0.44 in assay [14]; -0.027 in assay [4]; 0.051 in assay [5]; -0.022 in assay [6]. Also, the BI in assay [7] is recorded as -0.092; in [8], -0.161; in assay [9] it was -0.097; in assay [10] it was 0.076; in assay [11], -0.039; in [12], -0.004. Further, the BI in assay [13] is listed as 0.061. Besides, in assay [5], the “KD (affinity measured by holdup)” value was 96 µM. For the same compound, the LogKD in assay [10], in [12] and in assay [13] was 3.826 in each case.

`CC[C@H](C)[C@H](NC(=O)[C@H](CCC(N)=O)NC(=O)[C@@H](NC(=O)[C@H](Cc1c[nH]cn1)NC(=O)[C@H](CCC(N)=O)NC(=O)[C@H](CC(=O)O)NC(=O)[C@H](CCC(=O)O)NC(=O)[C@H](CC(=O)O)NC(=O)CCC(=O)NCCCOCCOCCOCCCNC(=O)CCCC[C@@H]1SC[C@@H]2NC(=O)N[C@@H]21)[C@@H](C)O)C(=O)N[C@H](C(=O)N[C@@H](CCCCN)C(=O)N[C@H](C(=O)O)C(C)C)[C@@H](C)O` [PTEN_11]: the affinity in [1], expressed as Kd, was 38.5 µM. The BI in [1] is reported as 0.455; in assay [2] it was -0.049; in assay [3], -0.007; in [14] it was 0.105; in assay [4] it was -0.046; in assay [5], -0.078. Moreover, the BI in assay [6] is given as -0.019; in assay [7] it was 0.001; in [8], 0.122; in [9], -0.018; in assay [10] it was 0.037; in assay [11], -0.067. Also, the BI amounted to 0.124 in assay [12] and 0.089 in assay [13]. Further, the LogKD in assay [2], in assay [3], in assay [4], in assay [6], in assay [7] and in assay [10] was 3.519 each time. Further, the LogKD in [11] and in [13] was 3.519 in each case. In addition, in assay [5], the “KD (affinity measured by holdup)” value is 160 µM.

For `CC[C@H](C)[C@H](NC(=O)[C@H](CCC(N)=O)NC(=O)[C@@H](NC(=O)[C@H](Cc1c[nH]cn1)NC(=O)[C@H](CCC(N)=O)NC(=O)[C@H](CC(=O)O)NC(=O)[C@H](CCC(=O)O)NC(=O)[C@H](CC(=O)O)NC(=O)CCC(=O)NCCCOCCOCCOCCCNC(=O)CCCC[C@@H]1SC[C@@H]2NC(=O)N[C@@H]21)[C@@H](C)O)C(=O)N[C@H](C(=O)N[C@@H](CCCCNC(C)=O)C(=O)N[C@H](C(=O)O)C(C)C)[C@@H](C)O` [PTEN_Ac], the Kd in [1] is 26.3 µM; in [8] it was 84.7 µM; in assay [13], 70.9 µM. In addition, the BI in assay [1] is given as 0.497; in [2] it was -0.102; in assay [3], -0.016; in assay [14], 0.164; in [4], -0.064; in [5] it was 0.104. In addition, the BI in assay [7] is on record as 0.018; in [8], 0.242; in assay [9], -0.024; in assay [10], 0.151; in [11], -0.07; in [13], 0.275. The LogKD in assay [2], in [3], in assay [4], in assay [7] and in [11] was 3.605 each time.
